According to publication PMC11472310, “Distinctive Immune Signatures Driven by Structural Alterations in Desmuramylpeptide NOD2 Agonists” (Journal of Medicinal Chemistry, 2024):

Legend:
[1] = biological target: T1, hNOD2 (Homo sapiens, UniProt Q9HC29); test: HEK-Blue NOD2 cell line reporter assay (NF-κB-inducible SEAP); type: cell-based; details: HEK-Blue NOD2 cells, 18 h, NF-κB transcriptional activity (SEAP); read-out: EC50 (nM), NOD2 agonistic activity
T1 construct: host or cells: HEK-Blue NOD2 cells (HEK293)
Experimental: To assess the NOD2 agonistic potential of the synthesized desmuramylpeptides at a cellular level, we employed the HEK-Blue NOD2 cell line reporter assay, a validated and commercially available method. All synthesized compounds were evaluated for their dose-dependent activities to establish their EC50 values.
The HEK-Blue NOD1 and NOD2 cell line reporter assay was generated from HEK293 cells through cotransfection of the hNOD1 or hNOD2 gene, respectively, along with an NF-κB-inducible secreted embryonic alkaline phosphatase (SEAP) reporter gene. Upon activation of NOD1 or NOD2, NF-κB triggers the production of SEAP, which can be quantitatively measured colorimetrically. […] After 18 h of incubation at 37 °C with 5% CO2, SEAP activity was measured spectrophotometrically by absorbance at 630 nm (BioTek Synergy microplate reader; Winooski, VT, USA). EC50 values were determined using Prism software (version 9; GraphPad Software, CA, USA). Each experiment was conducted in duplicate and repeated in at least two independent biological replicates.

[2] = system: BMDC/T-cell cocultures; test: T cell cytokine release in BMDC/T-cell cocultures; type: cell-based, C57BL/6 mouse; details: 10 μM, 72 h coculture
Experimental: (§1) For this study, we narrowed down the selection of suitable desmuramylpeptides even further. In order to assess the adjuvant potential of selected desmuramylpeptides with regard to their effect on DC-mediated activation of CD4^+ and CD8^+ T cells, we conducted an ex vivo antigen-presentation assay utilizing C57BL/6 mouse bone marrow-derived DCs (BMDCs). Upon stimulation with desmuramylpeptides at 10 μM, in conjunction with ovalbumin soluble protein (50 μg/mL), BMDCs were cocultured with carboxyfluorescein succinimidyl ester (CFSE)-labeled naïve ovalbumin-specific CD4^+ or CD8^+ T cells, which were isolated from splenocytes of OT II and OT I transgenic mice, respectively. […] Additionally, we investigated how the priming of T cells elicited by the tested compounds impacted the cytokine profiles secreted in BMDC/T-cell cocultures.
Following 72 h of coincubation with BMDCs (pretreated with desmuramylpeptides [10 μM] and washed), supernatants from CD4^+ and CD8^+ T cells were harvested as previously described. […] Standard curves were constructed using recombinant cytokines provided in the kit. Data analysis was conducted using FlowJo (Tree Star, Inc., Ashland, OR, USA) and Prism (GraphPad, San Diego, CA, USA) software. Each experiment was performed in duplicate and replicated in two independent biological runs.

[3] = system: CD4+ T cells cocultured with BMDCs; test: BMDC antigen presentation to ovalbumin-specific CD4+ T cells (OT II); type: cell-based, C57BL/6 mouse; details: BMDCs pretreated 10 μM + ovalbumin 50 μg/mL 18 h, coculture 72 h; OVA-treated cells 63.8%
Experimental: as §1
(§2) CD4^+ and CD8^+ T cells were isolated from splenocytes of OT II and OT I transgenic mice using CD4^+ and CD8^+ T cell isolation kits (Miltenyi Biotec, Germany) following the manufacturer’s instructions. The purified T cells were labeled with CFSE (Invitrogen, Carlsbad, CA, USA) and subsequently washed. Next, 5 × 10^4 T cells were combined with 1 × 10^4 BMDCs/well (pretreated with desmuramylpeptides at 10 μM and 50 μg/mL ovalbumin [Invivogen, San Diego, CA, USA] for 18 h and then washed). Following a 72-h incubation period at 37 °C with 5% CO2, supernatants were harvested and stored at −80 °C for cytokine analysis. The cells were then stained with Fixable viability dye eFluor 780 (eBioscience, Thermo Fisher Scientific, MA, USA), anti-Thy1.2-PE-Cy7 antibodies (Biolegend, San Diego, CA, USA), anti-CD8-eFluor450 antibodies (eBioscience), anti-CD4-eFluor450 antibodies (eBioscience), and anti-CD25-APC antibodies (Biolegend) before analysis using a Beckman Coulter Cytoflex S flow cytometer (CA, USA) and FlowJo software (Tree Star, Inc., Ashland, OR, USA). Live Thy1.2+/CD4+ and Thy1.2+/CD8+ cells were assessed for CFSE dilution and CD25 expression. Each experiment was performed in duplicate and repeated in two independent biological replicates. Statistical significance was determined using paired t tests.

[4] = system: PBMCs; test: Direct cytotoxic effect of compounds on PBMCs (Sytox blue); type: cell-based; details: Table S2; for Percent of dead PBMCs: alone: compounds 10 μM, LPS 1 μg/mL, IL-2 200 U/mL
Experimental: Additionally, PBMCs and cancer cells alone were treated with desmuramylpeptides to assess any direct cytotoxic effects on these cells.
(§3) The PBMC cytotoxicity assays utilizing K562 cells were conducted following previously established methods, with some adjustments.[82] […] Meanwhile, K562 cells were stained with CFSE (Invitrogen, Carlsbad, CA, USA), washed twice with complete medium, and then added (1 × 10^4 cells per well) to the pretreated PBMCs to achieve a final effector cell to target tumor cell ratio of 40:1. Following a 4-h coincubation period at 37 °C with 5% CO2, cells were stained with Sytox blue dead cell stain (Invitrogen) and analyzed using an Attune NxT flow cytometer (Thermo Fisher Scientific, Waltham, MA, USA) along with FlowJo software (Tree Star, Inc., Ashland, OR, USA). Cells positive for both CFSE and Sytox blue were designated as dead K562 cells. PBMCs alone and CFSE-labeled cancer cells alone were also exposed to the compounds at equivalent concentrations and stained with Sytox blue to assess any direct cytotoxic effects of the compounds on PBMCs and cancer cells separately. Each experiment was conducted in duplicate and repeated in three independent biological replicates. Statistical analysis was performed using one-way ANOVA followed by Dunnett’s multiple comparisons test.

[5] = system: human PBMCs; test: Cytokine release from peripheral blood mononuclear cells (LEGENDplex panel); type: cell-based; details: 18 h
Source text: The immunomodulatory effects of the selected desmuramylpeptides were examined in human primary peripheral blood mononuclear cells (PBMCs). This diverse mixture of immune cells provided a platform to investigate the effects of these NOD2 agonists within a physiologically relevant environment, encompassing other NOD2-interacting and downstream signaling proteins. […] Given that NOD2 activation often modulates the Toll-like receptor (TLR)-induced cytokine responses, we investigated the impact of combining desmuramylpeptides with lipopolysaccharide (LPS), a well-known TLR4 agonist, on cytokine secretion.[76]−[78]
The elicited cytokine profiles thus broadly reflect the structure–activity relationships obtained in the reporter gene assays.
Peripheral blood mononuclear cells were plated at a density of 1 × 10^6 cells/mL in 48-well plates containing 500 μL of growth medium. Cells were then treated with the compounds (2 μM) or the corresponding vehicle (0.1% DMSO), both in the absence and presence of LPS (10 ng/mL). Following an 18 h incubation period at 37 °C with 5% CO2, cell-free supernatants were collected and stored at −80 °C until analysis. […] Standard curves were constructed using recombinant cytokines provided in the kit. Data analysis was performed using Biolegend software Qognit and Prism (GraphPad, San Diego, CA, USA) software. The experiments were independently replicated four times. Statistical significance was determined using two-way analysis of variance (ANOVA) followed by Tukey’s multiple comparisons test.

[6] = system: K562 cancer cells; test: PBMC cytotoxicity against K562 cancer cells (flow cytometry); type: cell-based; details: for Cytotoxicity (ratio to control) / enhancement of cytotoxicity of PBMCs against K562 cells (relative to negative control): alone: compounds 10 μM, LPS 1 μg/mL, IL-2 200 U/mL; for enhancement of cytotoxicity of PBMCs against K562 cells (relative to negative control): effector:target 40:1
Experimental: In this study, we investigated the potential of desmuramylpeptides, both alone and in combination with LPS, to enhance the cytotoxic activity of PBMCs against cancer cells employing a flow-cytometry-based cytotoxicity assay based on coincubation of preactivated PBMCs with fluorescently labeled K562 cancer cells.[82] Among the diverse subpopulations within PBMCs, natural killer (NK) cells play a pivotal role in detecting and eliminating cancer cells. NOD2-mediated NK cell activity against cancer cells arises from both direct NOD2 agonist elicited cytolytic activity of NK cells[83] and indirect activation through cytokine release by other NOD2-responsive cells, such as monocytes, which comprise approximately 10% of PBMCs; such interactions potentially reinforce the immune response.[84] […] To that end, we utilized the entire PBMC population as effector cells rather than isolated NK cells, to mimic conditions more closely resembling the in vivo environment while K562 chronic myelogenous leukemia cells were used as the target cells in a 40:1 effector to target cell ratio.[87]
as §3

[7] = system: CD8+ T cells cocultured with BMDCs; test: BMDC antigen cross-presentation to ovalbumin-specific CD8+ T cells (OT I); type: cell-based, C57BL/6 mouse; details: BMDCs pretreated 10 μM + ovalbumin 50 μg/mL 18 h, coculture 72 h; OVA-treated cells 23.3%
Experimental: as §1
as §2, with “Each experiment was performed in duplicate and repeated in two independent biological replicates.” left out

T1 sequence (Q9HC29 whole entry): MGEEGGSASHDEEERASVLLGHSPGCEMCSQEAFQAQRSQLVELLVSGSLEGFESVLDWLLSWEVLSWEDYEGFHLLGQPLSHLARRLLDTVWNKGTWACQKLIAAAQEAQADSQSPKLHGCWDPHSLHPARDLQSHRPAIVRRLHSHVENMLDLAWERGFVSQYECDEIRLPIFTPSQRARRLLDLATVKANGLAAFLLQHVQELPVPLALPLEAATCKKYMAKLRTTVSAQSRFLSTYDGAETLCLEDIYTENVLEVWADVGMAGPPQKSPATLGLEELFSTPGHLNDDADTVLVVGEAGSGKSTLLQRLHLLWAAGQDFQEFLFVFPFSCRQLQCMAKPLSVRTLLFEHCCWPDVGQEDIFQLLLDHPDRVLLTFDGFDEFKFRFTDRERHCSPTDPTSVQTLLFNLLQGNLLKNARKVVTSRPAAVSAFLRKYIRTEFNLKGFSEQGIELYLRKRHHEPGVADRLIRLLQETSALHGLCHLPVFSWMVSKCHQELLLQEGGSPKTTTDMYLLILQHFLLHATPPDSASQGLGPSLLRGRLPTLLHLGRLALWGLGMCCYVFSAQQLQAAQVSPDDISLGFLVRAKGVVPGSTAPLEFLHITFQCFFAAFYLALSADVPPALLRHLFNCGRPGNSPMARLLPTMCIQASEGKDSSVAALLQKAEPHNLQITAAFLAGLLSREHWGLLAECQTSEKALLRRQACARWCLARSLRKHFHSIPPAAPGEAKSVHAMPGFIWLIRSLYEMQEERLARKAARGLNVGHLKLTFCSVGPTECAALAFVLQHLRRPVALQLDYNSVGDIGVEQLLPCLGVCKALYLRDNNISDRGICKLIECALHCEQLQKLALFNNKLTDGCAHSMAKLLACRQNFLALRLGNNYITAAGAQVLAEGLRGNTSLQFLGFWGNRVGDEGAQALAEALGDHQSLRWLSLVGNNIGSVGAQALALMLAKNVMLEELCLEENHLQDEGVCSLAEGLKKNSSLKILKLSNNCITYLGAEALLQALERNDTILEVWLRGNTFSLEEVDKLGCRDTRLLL

Row | EC50 [1] [nM] | Molecule | levels of IL-6 and TNF-α secreted by CD4+ T cells [2] | fraction of activated and proliferating CD4+ T-cells (CD25+, CFSE low) [3] [%] | Percent of dead PBMCs, + LPS ([4]; 10 μM + LPS 1 μg/mL) | Percent of dead PBMCs [4] | amounts of IL-1β, IL-6, IL-10, TNF-α and IFN-γ compared to the MDP/LPS combination ([5]; 2 μM + LPS 10 ng/mL) | levels of LPS-induced IL-10 ([5]; 2 μM + LPS 10 ng/mL) | levels of secreted MCP-1 compared to the MDP/LPS combination ([5]; 2 μM + LPS 10 ng/mL) | production of proinflammatory cytokines and chemokines including IL-6, IL-8 and MCP-1 ([5]; 2 μM alone (no LPS)) | cytotoxicity of PBMCs against K562 cells, cotreatment with LPS (relative to negative control) ([6]; 10 μM + LPS 1 μg/mL, 18 h, then 4 h coincubation, 40:1) [fold] | Cytotoxicity (ratio to control), + LPS ([6]; Table S2, 10 μM + LPS 1 μg/mL) | Cytotoxicity (ratio to control) ([6]; Table S2) | enhancement of cytotoxicity of PBMCs against K562 cells (relative to negative control) ([6]; 18 h, then 4 h coincubation) | fraction of activated and proliferating CD8+ T-cells (CD25+, CFSE low) [7] [%]
1 | > 10000 | CCOC(=O)[C@@H](CCC(=O)NC12C[C@H]3C[C@@H](C1)C[C@@H](C2)C3)NC(=O)[C@@H](NC(=O)CNC(=O)/C=C/c1ccc(O)c(OC)c1)C(C)C [Compound 28, Ethyl N^5-((3S,5S,7S)-Adamantan-1-yl)-N^2-((E)-3-(4-hydroxy-3-methoxyphenyl)acryloyl)glycyl-L-valyl-D-glutaminate] | slightly increased | 67.0 | 10.44% ± 0.63% | 0.99% ± 0.21% | lesser amounts | opposite | on par | smaller increases | 2.19 | 2.19 ± 0.07 | 0.91 ± 0.02 | devoid of the capacity to induce cytotoxicity | 
2 |  | lipopolysaccharide [LPS, reference compound] |  | 80.4 |  | 4.16% ± 0.47 |  |  |  |  |  |  | 1.8 ± 0.08 | 1.80 fold | 55.6
